According to patent US20060223827A1, “Bioreductively activated stilbene prodrugs” (Siemens Aktiengesellschaft, priority 2003, published 2006):

Key:
[1] = Radiolysis (steady state): release of combretastatin A4 after one-electron reduction; format: physicochemical; settings: isopropanol/water 50:50, N2O-saturated, 60Co source 3.9 Gy min^−1, HPLC
Method: In the hypoxic environments of solid tumours, prodrugs can be reduced by one-electron processes that are inhibited in the normoxic environments of normal tissues.
Compounds were dissolved in an isopropanol/water mixture (50:50) at a concentration of 50 μM or below. Solutions, in gas-tight syringes, were saturated with nitrous oxide before irradiation in a ^60Co source at a dose rate of 3.9 Gy min^−1 (as determined by Fricke dosimetry: H. Fricke and E. J. Hart, “Chemical Dosimetry” in Radiation Dosimetry Vol. 2 (F. H. Attrix and W. C. Roesch. Eds.), pp 167-239. Academic Press New York, 1966.). Solutions were analysed for released drug by HPLC. The radiation chemical yields (G-values) of combretastatin A4 release obtained in this assay for selected example compounds are shown in Table 1.

Structure (SMILES)	G (radiation chemical yield of combretastatin A4 release) [1]	melting point
COc1ccc(/C=C\c2cc(OC)c(OC)c(OC)c2)cc1OCc1c2c(n(C)c1C)C(=O)C=C(N1CCN(C)CC1)C2=O [Example 5, 3-((3,4,4′,5-Tetramethoxy-(Z)-stilbene-3′-yl)oxy)methyl-1,2-dimethyl-5-(4 methylpiperazin-1-yl)indole-4,7-dione]	0.34 µmol/J	
COC1=CC(=O)c2c(c(COc3cc(/C=C\c4cc(OC)c(OC)c(OC)c4)ccc3OC)c(C)n2C)C1=O [Example 4, 5-Methoxy-3-((3,4,4′,5-tetramethoxy-(Z)-stilbene-3′-yl)oxy)methyl-1,2-dimethylindole-4,7-dione]	0.44 µmol/J	192 to 194 °C
COc1ccc(/C=C\c2cc(OC)c(OC)c(OC)c2)cc1OC(C)c1ccc([N+](=O)[O-])s1 (stereo not drawn) [Example 2, 1-(4-Methoxy-3-(1-(5-nitrothien-2-yl)ethoxy))phenyl-2-(3,4,5-trimethoxy)phenyl-Z-ethene]	0.33 µmol/J	
COc1ccc(/C=C\c2cc(OC)c(OC)c(OC)c2)cc1OCc1ccc([N+](=O)[O-])s1 [Example 1, 1-(4-Methoxy-3-(5-nitrothien-2-yl)methoxy)phenyl-2-(3,4,5-trimethoxy)phenyl-Z-ethene]	0.23 µmol/J	88 to 90 °C
